What is called IC50 is the concentration needed to halve the response being measured. By IC90 is commonly meant the concentration at which the effect reaches the 90% level.

Values after ≈ are worked out from the molar mass of the structure shown.

One assay relates to K562/ADR (K562adr, drug-resistant chronic myeloid leukemia) cells. Put plainly: MTT cell growth inhibition, leukemia cells. The assay is classed as cell-based. The following applies: Homo sapiens; K562/ADR, 72 h, MTT; read-out: IC50. The procedure, abridged:
(§1)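 MTT read-out of viable cells after 72 h compound exposure at 37° C., 5% CO2; 6000 cells/well in RPMI-1640 + 10% FBS, dosed one day after seeding over a range of concentrations.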
As for `COc1ccc2cc1Oc1ccc(cc1)C[C@H]1c3cc(c(OC)cc3CCN1C)Oc1c(OC(=O)C3CC3)c(OC)cc3c1[C@H](C2)N(C)CC3` [BS-FC-304], the IC50 amounted to 0.44 µg/mL (≈ 0.65 µM).

Staying with this assay, now noted: Homo sapiens; K562/ADR, 72 h, MTT; read-out: IC90.
In the case of `COc1ccc2cc1Oc1ccc(cc1)C[C@H]1c3cc(c(OC)cc3CCN1C)Oc1c(OC(=O)C3CC3)c(OC)cc3c1[C@H](C2)N(C)CC3` [BS-FC-304], the IC90 was 3 µg/mL (≈ 4.43 µM).

For the next assay, the system named is NB4 (acute promyelocytic leukemia) cells. The assay is described as follows: MTT cell growth inhibition, leukemia cells. Conditions: Homo sapiens; NB4, 72 h, MTT; read-out: IC50. In kind it is cell-based. The procedure, abridged:
as §1
With `COc1ccc2cc1Oc1ccc(cc1)C[C@H]1c3cc(c(OC)cc3CCN1C)Oc1c(OC(=O)C3CC3)c(OC)cc3c1[C@H](C2)N(C)CC3` [BS-FC-304], the 50% inhibitory concentration (IC50) was 1.24 µg/mL (≈ 1.83 µM).

The same assay, now with this note: Homo sapiens; NB4, 72 h, MTT; read-out: IC90.
In the case of `COc1ccc2cc1Oc1ccc(cc1)C[C@H]1c3cc(c(OC)cc3CCN1C)Oc1c(OC(=O)C3CC3)c(OC)cc3c1[C@H](C2)N(C)CC3` [BS-FC-304], the IC90 was 3.99 µg/mL (≈ 5.9 µM).

Another assay concerns Becap-37 (human breast cancer) cells. Put plainly: MTT cell growth inhibition, solid tumor cells. The following applies: Homo sapiens; Becap-37, 72 h, MTT; read-out: IC50. The assay is classed as cell-based. In a few lines: (§2)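 Human tumor cells seeded at 6000 per well grow 24 h in serum-supplemented (10% FBS) high-glucose DMEM. A 72 h incubation with graded compound doses at 37 °C follows, and MTT reports viable cell number.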
Turning to `COc1ccc2cc1Oc1ccc(cc1)C[C@H]1c3cc(c(OC)cc3CCN1C)Oc1c(OC(=O)C3CC3)c(OC)cc3c1[C@H](C2)N(C)CC3` [BS-FC-304], the IC50 turned out to be 3.15 µg/mL (≈ 4.65 µM).

The assay is the same for the next values; noted with them: Homo sapiens; Becap-37, 72 h, MTT; read-out: IC90.
`COc1ccc2cc1Oc1ccc(cc1)C[C@H]1c3cc(c(OC)cc3CCN1C)Oc1c(OC(=O)C3CC3)c(OC)cc3c1[C@H](C2)N(C)CC3` [BS-FC-304]: the IC90 was found to be 7.22 µg/mL (≈ 10.7 µM).

The subject of a further assay is MG-63 (osteosarcoma) cells. Put plainly: MTT cell growth inhibition, solid tumor cells. In kind it is cell-based. Conditions: Homo sapiens; MG-63, 72 h, MTT; read-out: IC50. The procedure, abridged:
as §2
With `COc1ccc2cc1Oc1ccc(cc1)C[C@H]1c3cc(c(OC)cc3CCN1C)Oc1c(OC(=O)C3CC3)c(OC)cc3c1[C@H](C2)N(C)CC3` [BS-FC-304], the IC50 was determined as 2.32 µg/mL (≈ 3.43 µM).

Still in this assay, the particulars now being: Homo sapiens; MG-63, 72 h, MTT; read-out: IC90.
On to `COc1ccc2cc1Oc1ccc(cc1)C[C@H]1c3cc(c(OC)cc3CCN1C)Oc1c(OC(=O)C3CC3)c(OC)cc3c1[C@H](C2)N(C)CC3` [BS-FC-304], for which the IC90 worked out at 5.72 µg/mL (≈ 8.45 µM).

The test system of the next assay is Hep G2 (human liver cancer) cells. The assay is described as follows: MTT cell growth inhibition, solid tumor cells. The following applies: Homo sapiens, HepG2; Hep G2, 72 h, MTT; read-out: IC50. The assay is classed as cell-based. In a few lines: as §2
As to `COc1ccc2cc1Oc1ccc(cc1)C[C@H]1c3cc(c(OC)cc3CCN1C)Oc1c(OC(=O)C3CC3)c(OC)cc3c1[C@H](C2)N(C)CC3` [BS-FC-304], the IC50 came to 2.49 µg/mL (≈ 3.68 µM).

The assay is the same for the next values; noted with them: Homo sapiens, HepG2; Hep G2, 72 h, MTT; read-out: IC90.
For `COc1ccc2cc1Oc1ccc(cc1)C[C@H]1c3cc(c(OC)cc3CCN1C)Oc1c(OC(=O)C3CC3)c(OC)cc3c1[C@H](C2)N(C)CC3` [BS-FC-304], the IC90 was 9.42 µg/mL (≈ 13.9 µM).

A further assay deals with U87-MG (malignant glioma) cells. The assay is described as follows: MTT cell growth inhibition, solid tumor cells. Conditions: Homo sapiens, U-87 MG; U87-MG, 72 h, MTT; read-out: IC50. In kind it is cell-based. The procedure, abridged:
as §2
For the compound `COc1ccc2cc1Oc1ccc(cc1)C[C@H]1c3cc(c(OC)cc3CCN1C)Oc1c(OC(=O)C3CC3)c(OC)cc3c1[C@H](C2)N(C)CC3` [BS-FC-304], the IC50 is 1.68 µg/mL (≈ 2.48 µM).

Still in this assay, the particulars now being: Homo sapiens, U-87 MG; U87-MG, 72 h, MTT; read-out: IC90.
Turning to `COc1ccc2cc1Oc1ccc(cc1)C[C@H]1c3cc(c(OC)cc3CCN1C)Oc1c(OC(=O)C3CC3)c(OC)cc3c1[C@H](C2)N(C)CC3` [BS-FC-304], the IC90 was determined as 4.97 µg/mL (≈ 7.34 µM).

The next assay deals with Hela (human cervical cancer) cells. Put plainly: MTT cell growth inhibition, solid tumor cells. The following applies: Homo sapiens; Hela, 72 h, MTT; read-out: IC50. In kind it is cell-based. In a few lines:
as §2
`COc1ccc2cc1Oc1ccc(cc1)C[C@H]1c3cc(c(OC)cc3CCN1C)Oc1c(OC(=O)C3CC3)c(OC)cc3c1[C@H](C2)N(C)CC3` [BS-FC-304]: the IC50 came to 1.87 µg/mL (≈ 2.76 µM).

The assay is the same for the next values; noted with them: Homo sapiens; Hela, 72 h, MTT; read-out: IC90.
As for `COc1ccc2cc1Oc1ccc(cc1)C[C@H]1c3cc(c(OC)cc3CCN1C)Oc1c(OC(=O)C3CC3)c(OC)cc3c1[C@H](C2)N(C)CC3` [BS-FC-304], the IC90 amounted to 4.65 µg/mL (≈ 6.87 µM).

The subject of a further assay is RKO (human colon adenocarcinoma) cells. Put plainly: MTT cell growth inhibition, solid tumor cells. In kind it is cell-based. Conditions: Homo sapiens; RKO, 72 h, MTT; read-out: IC50. The procedure, abridged:
as §2
As for `COc1ccc2cc1Oc1ccc(cc1)C[C@H]1c3cc(c(OC)cc3CCN1C)Oc1c(OC(=O)C3CC3)c(OC)cc3c1[C@H](C2)N(C)CC3` [BS-FC-304], the IC50 was 1.79 µg/mL (≈ 2.64 µM).

The assay is the same for the next values; noted with them: Homo sapiens; RKO, 72 h, MTT; read-out: IC90.
In the case of `COc1ccc2cc1Oc1ccc(cc1)C[C@H]1c3cc(c(OC)cc3CCN1C)Oc1c(OC(=O)C3CC3)c(OC)cc3c1[C@H](C2)N(C)CC3` [BS-FC-304], the IC90 was determined as 3.45 µg/mL (≈ 5.1 µM).

Another assay deals with tumor. Put plainly: Antitumor activity compared with fangchinoline, overall statement. In kind it is cell-based. Conditions: tumor type not specified.
As for `COc1ccc2cc1Oc1ccc(cc1)C[C@H]1c3cc(c(OC)cc3CCN1C)Oc1c(OC(=O)C3CC3)c(OC)cc3c1[C@H](C2)N(C)CC3` [BS-FC-304], the “antitumor activity compared with that of fangchinoline” value is recorded as “significantly superior”.

For the origin of these results see patent publication US9328122B2, “7-substituted Hanfangichin B derivative, and preparation method and use thereof” (HANGZHOU BENSHENG PHARMACEUTICAL CO., LTD., priority 2012, dated 2016).
